Reference: patent US7498438B2, “Fused ring NK1 antagonists” (Schering Corporation, priority 2004, dated 2009)

target: NK1 receptor (Homo sapiens, UniProt P25103); assay: NK1 receptor binding: inhibition of Substance P binding, Ki by the Chang-Prusoff equation
Description: The in vitro and in vivo NK1, NK2 and NK3 activities of the compounds of Formula 1 can be determined by various procedures known in the art, such as a test for their ability to inhibit the activity of the NK1 agonist Substance P. The percent inhibition of neurokinin agonist activity is the difference between the percent of maximum specific binding (“MSB”) and 100%. The percent of MSB is defined by the following equation, wherein “dpm” represents “disintegrations per minute”:
[formula] The concentration at which the compound produces 50% inhibition of binding is then used to determine an inhibition constant (“Ki”) using the Chang-Prusoff equation.
The activities (potencies) for the compounds of the invention are determined by measuring their Ki values. […] Even more preferred are compounds having average Ki values of from 0.01 nM to about 10 nM for the NK1 receptor. Especially preferred compounds have NK1 average Ki values of from 0.01 nM to about 3 nM. Even more especially preferred compounds have NK1 average Ki values of from 0.01 nM to about 0.3 nM.

NK1 receptor, sequence (P25103 whole entry, species assumed): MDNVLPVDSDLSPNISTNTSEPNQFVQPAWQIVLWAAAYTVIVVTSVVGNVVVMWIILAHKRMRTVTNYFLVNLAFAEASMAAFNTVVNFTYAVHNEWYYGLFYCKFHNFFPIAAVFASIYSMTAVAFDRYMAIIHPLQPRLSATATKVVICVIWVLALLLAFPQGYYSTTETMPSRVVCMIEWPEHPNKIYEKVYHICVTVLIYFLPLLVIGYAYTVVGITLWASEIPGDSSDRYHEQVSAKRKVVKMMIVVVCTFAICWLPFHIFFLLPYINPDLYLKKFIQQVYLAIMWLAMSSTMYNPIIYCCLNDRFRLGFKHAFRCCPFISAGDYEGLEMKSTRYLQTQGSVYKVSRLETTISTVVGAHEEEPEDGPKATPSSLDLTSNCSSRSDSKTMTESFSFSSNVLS

| SMILES | Ki [nM] |
| --- | --- |
| C[C@@H](OC[C@@]1(c2ccccc2)CCC2OC(=O)NC2N1)c1cc(C(F)(F)F)cc(C(F)(F)F)c1 (single isomer, unassigned) [Compound 4b] | 0.32 |
| C[C@@H](OC[C@@]1(c2ccccc2)CC[C@@H]2NC(=O)NCC2N1)c1cc(C(F)(F)F)cc(C(F)(F)F)c1 (some centres unmarked) [Compound 8] | 0.36 |
| C[C@@H](OC[C@@]1(c2ccccc2)CC[C@@H]2NC(=O)CCC2N1)c1cc(C(F)(F)F)cc(C(F)(F)F)c1 (some centres unmarked) [Compound 7] | 0.3 |
| C[C@@H](OC[C@@]1(c2ccccc2)CC[C@@H]2NC(=O)CC2N1)c1cc(C(F)(F)F)cc(C(F)(F)F)c1 (some centres unmarked) [Compound 5a] | 0.23 |
| C[C@@H](OC[C@@]1(c2ccccc2)C[C@H]2OC(=O)NC2CN1)c1cc(C(F)(F)F)cc(C(F)(F)F)c1 (some centres unmarked) [Compound 9a] | 0.28 |
| C[C@@H](OC[C@@]1(c2ccccc2)CC[C@@H]2NC(=O)OCCC2N1)c1cc(C(F)(F)F)cc(C(F)(F)F)c1 (some centres unmarked) [Compound 6a] | 0.14 |
| C[C@@H](OC[C@@]1(c2ccccc2)CCC2OC(=O)NC2N1)c1cc(C(F)(F)F)cc(C(F)(F)F)c1 (single isomer, unassigned) [Compound 4a] | 0.62 |
| C[C@@H](OC[C@@]1(c2ccccc2)C[C@H]2NC(=O)NC2CN1)c1cc(C(F)(F)F)cc(C(F)(F)F)c1 (some centres unmarked) [Compound 1a] | 0.23 |
